# Measured values reported in ChEMBL document CHEMBL1157450, “Potent and selective small-molecule human urotensin-II antagonists with improved pharmacokinetic profiles” (Bioorg Med Chem Lett, 2008).
# pEC50, pIC50, pKi: −log10 of the molar value. Active and inactive are the calls of the source. No cut-off for these calls is given here.
# Tests used:
# [1] = Volume of distribution at steady state in rat at 2 mg/kg, iv and 4 mg/kg, po; type: ADME, organism-based; settings: in vivo, read-out: Vdss
# [2] = Oral bioavailability in rat at 4 mg/kg; type: ADME, organism-based; settings: in vivo
# Urotensin-2 receptor = biological target: T1, Urotensin-2 receptor (Homo sapiens, UniProt Q9UKP6); assay: Binding affinity to human urotensin-2 receptor
# T1 sequence (Q9UKP6 whole entry): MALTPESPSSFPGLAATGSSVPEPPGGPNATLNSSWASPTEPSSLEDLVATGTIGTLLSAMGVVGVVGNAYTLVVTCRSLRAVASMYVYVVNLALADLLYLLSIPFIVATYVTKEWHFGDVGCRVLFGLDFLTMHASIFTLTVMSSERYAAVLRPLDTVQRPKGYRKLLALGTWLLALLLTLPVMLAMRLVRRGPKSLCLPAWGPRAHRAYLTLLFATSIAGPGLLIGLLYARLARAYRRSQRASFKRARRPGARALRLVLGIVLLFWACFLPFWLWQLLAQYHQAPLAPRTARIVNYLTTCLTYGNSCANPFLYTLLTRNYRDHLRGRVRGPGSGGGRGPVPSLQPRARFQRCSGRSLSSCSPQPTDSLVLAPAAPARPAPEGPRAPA
# [3] = biological target: Kappa-type opioid receptor (Homo sapiens, UniProt P41145); assay: Agonist activity at kappa opioid receptor; type: functional
# Kappa-type opioid receptor, sequence (P41145 whole entry): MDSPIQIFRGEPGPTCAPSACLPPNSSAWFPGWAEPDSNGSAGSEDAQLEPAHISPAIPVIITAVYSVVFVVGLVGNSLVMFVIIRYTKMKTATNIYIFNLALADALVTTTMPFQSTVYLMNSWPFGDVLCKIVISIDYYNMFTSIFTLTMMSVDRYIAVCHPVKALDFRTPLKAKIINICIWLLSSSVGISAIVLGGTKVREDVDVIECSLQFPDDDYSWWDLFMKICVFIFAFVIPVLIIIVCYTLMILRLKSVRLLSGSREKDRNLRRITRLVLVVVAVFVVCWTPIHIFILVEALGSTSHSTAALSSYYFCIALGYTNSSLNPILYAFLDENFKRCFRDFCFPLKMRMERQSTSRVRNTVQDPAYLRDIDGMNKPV
# [4] = (§1) Binding affinity to batrachotoxinin-sensitive rat brain sodium channel
# Cytochrome P450 2D6 = Cytochrome P450 2D6 (Homo sapiens, UniProt P10635); assay: Inhibition of CYP2D6; type: ADME
# Cytochrome P450 2D6, sequence (P10635 whole entry): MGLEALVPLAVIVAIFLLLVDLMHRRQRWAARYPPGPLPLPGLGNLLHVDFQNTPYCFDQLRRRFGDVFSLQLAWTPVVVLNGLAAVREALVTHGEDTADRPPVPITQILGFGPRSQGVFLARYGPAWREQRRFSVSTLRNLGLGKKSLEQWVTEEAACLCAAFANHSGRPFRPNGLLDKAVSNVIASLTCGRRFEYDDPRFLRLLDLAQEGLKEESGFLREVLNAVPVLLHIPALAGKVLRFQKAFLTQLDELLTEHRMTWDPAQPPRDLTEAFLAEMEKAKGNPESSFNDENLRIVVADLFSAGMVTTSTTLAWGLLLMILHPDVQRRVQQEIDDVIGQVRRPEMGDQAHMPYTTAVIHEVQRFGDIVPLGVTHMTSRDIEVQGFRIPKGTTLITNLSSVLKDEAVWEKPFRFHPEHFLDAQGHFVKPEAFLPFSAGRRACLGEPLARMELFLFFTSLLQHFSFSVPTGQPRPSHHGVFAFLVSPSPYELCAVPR
# Cytochrome P450 3A4 = Cytochrome P450 3A4 (Homo sapiens, UniProt P08684); assay: Inhibition of CYP3A4; type: ADME
# Cytochrome P450 3A4, sequence (P08684 whole entry): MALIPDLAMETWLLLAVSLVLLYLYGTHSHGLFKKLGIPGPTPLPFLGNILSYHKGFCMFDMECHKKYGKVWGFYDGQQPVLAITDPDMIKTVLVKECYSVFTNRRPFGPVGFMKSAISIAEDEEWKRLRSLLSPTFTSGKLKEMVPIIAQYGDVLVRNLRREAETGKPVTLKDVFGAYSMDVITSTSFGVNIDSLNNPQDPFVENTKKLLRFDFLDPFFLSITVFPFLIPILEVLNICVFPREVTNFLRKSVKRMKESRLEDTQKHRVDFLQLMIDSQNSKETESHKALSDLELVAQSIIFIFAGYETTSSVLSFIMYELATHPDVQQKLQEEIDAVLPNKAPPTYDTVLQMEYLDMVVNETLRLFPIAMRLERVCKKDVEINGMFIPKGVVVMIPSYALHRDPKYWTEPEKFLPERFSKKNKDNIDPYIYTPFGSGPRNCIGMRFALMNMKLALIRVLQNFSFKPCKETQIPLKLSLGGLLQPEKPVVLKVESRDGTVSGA
# [5] = Half life in rat at 2 mg/kg, iv and 4 mg/kg, po; type: ADME, organism-based; settings: in vivo
# [6] = Clearance in rat at 2 mg/kg, iv and 4 mg/kg, po; type: ADME, organism-based; settings: in vivo
# [7] = Cmax in rat at 2 mg/kg, iv and 4 mg/kg, po; type: ADME, organism-based; settings: in vivo
# Aorta = assay: Inhibition of contraction in isolated rat aorta; type: functional
# Rattus norvegicus = organism: Rattus norvegicus; assay: as §1
SMILES,Vd [1] [L/kg],bioavailability [2] [%],pKi (Urotensin-2 receptor),pEC50 [3],pKi [4],pIC50 (Cytochrome P450 2D6),pIC50 (Cytochrome P450 3A4),half-life [5] [h],clearance [6] [mL/min/kg],Cmax [7] [ng/mL],Kb (Aorta) [nM],Activity (Rattus norvegicus)
CNC(=O)c1cccc(-c2ccc(C(CN3CCOCC3)N(C)C(=O)Cn3c(=O)cnc4cc(C)c(C)cc43)cc2)c1 (centres undefined),1.7,39,8.22,5.40,4.52,4.48,5.05,1,60,,,
CN(C(=O)CN1C(=O)COc2cc(Cl)c(Cl)cc21)[C@H](CN1CCOCC1)c1ccc(-c2ccccc2)cc1,19,17,6.20,7.40,5.03,4.48,5.38,2.6,130,230,,
"CN(C(=O)Cc1ccc(Cl)c(Cl)c1)[C@H](CN1CCCC1)c1ccccc1 [ICI-199,441]",,,5.40,,,,,,,,,
COc1cccc(-c2ccc(C(CN3CCOCC3)N(C)C(=O)CN3C(=O)COc4cc(Cl)c(Cl)cc43)cc2)c1 (centres undefined),20,30,8.30,6.80,4.66,4.77,6.00,3.4,140,290,21,
CN(CC(=O)N1CCC[C@@H](c2ccccc2)[C@H]1CN1CCCC1)c1ccc(Cl)c(Cl)c1,,,,5.70,,,,,,,,
CN(CC(=O)N1CCCC(c2ccccc2)C1CN1CCCC1)c1ccc(Cl)c(Cl)c1 (racemic),,,,,5.60,,,,,,,
CN(CC(=O)N(C)C(CN1CCCC1)c1ccc(-c2ccccc2)cc1)c1ccc(Cl)c(Cl)c1 (centres undefined),,,7.70,7.80,5.92,5.23,5.31,,,,,
CN(CC(=O)N(C)C(CN1CCCC1)c1ccccc1)c1ccc(Cl)c(Cl)c1 (racemic),,,7.82,9.70,,6.80,5.48,,,,,inactive
CN(C(=O)CN1C(=O)COc2cc(Cl)c(Cl)cc21)C(CN1CCOCC1)c1ccc(-c2ccccc2)cc1 (racemic),23,,7.89,6.49,4.95,4.48,5.34,2.4,150,160,,
CN(C(=O)CN1C(=O)COc2cc(Cl)c(Cl)cc21)[C@@H](CN1CCOCC1)c1ccc(-c2ccccc2)cc1,11,43,7.80,6.10,5.11,4.48,5.04,2.2,120,200,,
CN(CC(=O)N(C)[C@@H](CN1CCCC1)c1ccccc1)c1ccc(Cl)c(Cl)c1,,,7.89,8.40,5.70,,,,,,,
CNC(=O)c1cccc(-c2ccc(C(CN3CCOCC3)N(C)C(=O)Cn3c(=O)cnc4cc(Cl)c(Cl)cc43)cc2)c1 (centres undefined),2,29,8.40,5.70,4.52,4.48,5.30,1.5,36,1100,,
COCCN(CC(=O)N(C)C(CN1CCCC1)c1ccc(-c2ccc(C(N)=O)cc2)cc1)c1ccc(Cl)c(Cl)c1 (centres undefined),,,8.52,7.00,4.77,5.21,5.59,,,,,
CN(C(=O)CN(CC#N)c1ccc(Cl)c(Cl)c1)C(CN1CCCC1)c1ccc(-c2cccc(C(N)=O)c2)cc1 (centres undefined),20,36,9.52,7.49,4.66,5.46,5.66,3.4,100,340,,
CN(CC(=O)N(C)[C@H](CN1CCCC1)c1ccccc1)c1ccc(Cl)c(Cl)c1,,,5.60,10.00,,,,,,,,
CN(CC(=O)N1CCC[C@H](c2ccccc2)[C@@H]1CN1CCCC1)c1ccc(Cl)c(Cl)c1,,,8.22,5.20,,,,,,,,
CC(=O)Nc1ccc(-c2ccc(C(CN3CCOCC3)N(C)C(=O)CN3C(=O)COc4cc(C)c(C)cc43)cc2)cc1 (centres undefined),2.8,83,8.52,6.10,4.52,4.52,5.19,1.7,94,600,,
CN(CC(=O)N(C)C(CN1CCOCC1)c1ccc(-c2ccccc2)cc1)c1ccc(Cl)c(Cl)c1 (centres undefined),,,6.20,5.80,< 3.52,4.80,5.68,,,,,
